Results published in US20230278987A1, “Antimicrobial Compounds and Methods” (Curza Global, LLC, priority 2019, published 2023).
In brackets after ≈: the same amount, converted by molar mass. Counter-ions that a name gives are not always drawn. Like-named read-outs stand apart in the source and are kept apart here.

Legend:
[1] = target: Rabbit Reticulocyte Lysate (eukaryotic protein synthesis); assay: Rabbit Reticulocyte Lysate: inhibition of eukaryotic protein synthesis (luciferase); assay type: biochemical; settings: 30° C. for 90 minutes, read-out: retic. IC50
Description: Inhibition of eukaryotic protein synthesis was determined using the Rabbit Reticulocyte Lysate System, Nuclease-Treated from Promega (catalog #L-4960) with slight modifications to the manufacturer’s protocol. Compounds were serial diluted in 0.5 mL microcentrifuge tubes by mixing and transferring 50 µL from the highest concentration to 50 µL of water, mixing and transferring 50 µL of this 2-fold dilution to 50 µL of water. This mixing and transferring was repeated so that there are a total of 8 tubes with serial dilutions of compound at 10× the desired screening concentration that are ultimately diluted to 1× by the addition of rabbit reticulocyte luciferase synthesis mixture. Serial dilutions of compounds were added (2.5 µL) to wells in a black round bottom 96-well plate. Water (2.5 µL) was used as a “no inhibitor” control in 4 wells/plate. No RNA control reaction mixture (2 µL; see below) was used as a control in 4 wells/plate for background luminescence. Rabbit reticulocyte luciferase synthesis mixture (22.5 µL; see below) was added to wells with compounds or water mixture and incubated at 30° C. for 90 minutes. Luciferase assay reagent (25 µL) was added with luminescence measured using a BioTek Synergy HTX plate reader. % Inhibition was determined relative to no inhibitor controls.
Rabbit reticulocyte luciferase synthesis mixture: • 1,000 µL rabbit reticulocyte lysate • 5.7 µL Luciferase Control RNA (1 µg/ µL) • 26 µL complete amino acid mixture • 395 µL water
No RNA Control • 70 µL rabbit reticulocyte lysate • 2 µL complete amino acid mixture • 28 µL water

E.coli (Ec) = assay: Broth microdilution MIC against E.coli (Ec); assay type: cell-based; settings: Escherichia coli
Description: (§1) A certified BSL-2 laboratory was used for testing. Compounds were evaluated using the broth microdilution minimum inhibitory concentration (MIC) and minimum bactericidal concentration (MBC) assays defined by Clinical and Laboratory Standards Institute (CLSI) in the M26-A guideline against S.aureus (Sa), E.coli (Ec), K.pneumoniae (Kp), A.baumannii (Ab), E.faecalis (Ef) and P.aeruginosa (Pa).
(§2) MICs were determined using the Clinical Laboratory and Standards Institute (CLSI) Broth Microdilution Method with slight modification. Clinical and Laboratory Standards Institute (2012). “Methods for dilution antimicrobial susceptibility tests for bacteria that grow aerobically; approved standard, 9th ed. M07-A9. Clinical and Laboratory Standards Institute, Wayne, PA.” Serial two-fold dilutions of compounds are prepared in sterile clear roundbottom 96-well plates.
(§3) To prepare microdilution trays, two-fold dilutions of antimicrobial agent are prepared in growth medium: Cation-Adjusted Mueller-Hinton Broth (CAMHB), or CAMHB supplemented with sodium bicarbonate (6.25 or 25 mM final concentration prepared from a 1.0 M stock solution) or CAMHB supplemented with heat inactivated human serum (Fisher Cat. # BP2657100) 0-50% by adding 200 µL of the highest concentration to be tested (64 µg/mL, for example) in row A, mixing and transferring 100 µL from row A to 100 µL growth medium in row B, then repeating the mixing and transferring through row H of the 96-well plate, discarding the excess 100 µL remaining. This slight modification to the CLSI protocol enables evaluation of MICs for 3 compounds per plate in triplicate, albeit with only 8 compound dilutions (CLSI protocol enables 2 compounds in triplicate with 10 dilutions). Bacterial suspensions are added to a final concentration of 5 × 10^4 CFU/well by adding 5 µL of a 1:10 dilution of a 0.5 McFarland suspension (1 × 10^8 CFU/mL) for each bacterium evaluated. Bacterial suspensions were prepared using the growth method described by CLSI. Well-isolated colonies (3-5 from an agar plate) were selected using a sterile loop and used to inoculate a tube containing 4 mL of CAMHB. The cultures are incubated at 35 ± 2° C. until it achieves or exceeds the turbidity of the 0.5 McFarland standard, determined by measuring A600nm (usually two to six hours). When growth exceeds a 0.5 McFarland standard, the turbidity is adjusted with broth to be equivalent to a 0.5 McFarland standard.

E.faecalis (Ef) = assay: Broth microdilution MIC against E.faecalis (Ef); assay type: cell-based; settings: Enterococcus faecalis
Description: as §1, §2, §3

S.aureus (Sa) = assay: Broth microdilution MIC against S.aureus (Sa); assay type: cell-based; settings: Staphylococcus aureus
Description: as §1, §2, §3

P.aeruginosa (Pa) = assay: Broth microdilution MIC against P.aeruginosa (Pa); assay type: cell-based; settings: Pseudomonas aeruginosa
Description: as §1, §2, §3

A.baumannii (Ab) = assay: Broth microdilution MIC against A.baumannii (Ab); assay type: cell-based; settings: Acinetobacter baumannii
Description: as §1, §2, §3

[2] = system: E.coli S30 extract (bacterial protein synthesis); assay: E.coli S30 extract: inhibition of bacterial protein synthesis (luciferase); assay type: biochemical; settings: 37° C. for 1 hour
Description: E.coli S30 extract: Inhibition of bacterial protein synthesis was determined using the E.coli S30 Extract System for Circular DNA (Promega catalog #L-2010) and Luciferase Assay Reagent (Promega catalog #E1500) with slight modifications to a published protocol. Fyfe, C., Sutcliffe, J.A. and Grossman, T.H. (2012) “Development and characterization of a Pseudomonas aeruginosa in vitro coupled transcription-translation assay system for evaluation of translation inhibitors” J. Microbiol. Methods 90(3), 256-261.
Compounds were serial diluted in 0.5 mL microcentrifuge tubes by mixing and transferring 50 µL from the highest concentration to 50 µL of water, mixing and transferring 50 µL of this 2-fold dilution to 50 µL of water. This mixing and transferring was repeated so that there are a total of 8 tubes with serial dilutions of compound at 10× the desired screening concentration that are ultimately diluted to 1× by the addition of S30 luciferase synthesis mixture. Serial dilutions of compounds were added (2 µL) to wells in a black round bottom 96-well plate. Water (2 µL) was used as a “no inhibitor” control in 4 wells/plate. No DNA control reaction mixture (20 µL; see below) was used as a control in 4 wells/plate for background luminescence. S30 luciferase synthesis mixture (18 µL; see below) was added to wells with compounds or water mixture and incubated at 37° C. for 1 hour. Reactions were stopped by transferring to 4° C. refrigerator for 5 minutes then 25 µL of luciferase activity mix was added. Luminescence was measured using a BioTek Synergy HTX plate reader. % Inhibition was determined relative to no inhibitor controls.
S30 luciferase synthesis mixture: • 445 µL S30 extract, circular • 712 µL S30 Premix without amino acids • 4.45 µL pBESTluc™ DNA (1 µg/ µL) • 78 µL complete amino acid mixture • 267 µL water
No DNA control: • 20 µL S30 extract, circular • 32 µL S30 Premix without amino acids • 7 µL complete amino acid mixture • 21 µL water

[3] = read-out: E.coli + bicarb 25 (MIC)
[4] = CAMHB supplemented with sodium bicarbonate 25 mM, read-out: E.coli + bicarb 25 (MIC)
[5] = CAMHB supplemented with sodium bicarbonate 25 mM, read-out: Ef +bicarb 25 (MIC)
[6] = CAMHB supplemented with sodium bicarbonate 25 mM, read-out: Sa + bicarb 25 (MIC)
[7] = CAMHB supplemented with sodium bicarbonate 25 mM, read-out: Pa +bicarb 25 (MIC)
[8] = CAMHB supplemented with sodium bicarbonate 25 mM, read-out: Ab +bicarb 25 (MIC)
[9] = CAMHB supplemented with sodium bicarbonate 6.25 mM, read-out: E. coli + bicarb 6.25 (MIC)
[10] = CAMHB supplemented with sodium bicarbonate 6.25 mM, read-out: Ef +bicarb 6.25 (MIC)
[11] = CAMHB supplemented with sodium bicarbonate 6.25 mM, read-out: Sa + bicarb 6.25 (MIC)
[12] = CAMHB supplemented with sodium bicarbonate 6.25 mM, read-out: Pa +bicarb 6.25 (MIC)
[13] = CAMHB supplemented with sodium bicarbonate 6.25 mM, read-out: Ab +bicarb 6.25 (MIC)

CCN(C1CCc2cc(-n3ccc(NC(=O)N4CCN(C(=O)C(C)(C)N)CC4)nc3=O)ccc2C1)[C@H]1CC[C@H](N)CC1 (stereo partly drawn) [Compound 16, 4-(2-Amino-2-methylpropanoyl)-N-(1-(6-(((trans)-4-aminocyclohexyl)(ethyl)amino)-5,6,7,8-tetrahydronaphthalen-2-yl)-2-oxo-1,2-dihydropyrimidin-4-yl)piperazine-1-carboxamide hydrochloride salt]
IC50 [1]: ≥ 1000 nM | MIC (E.coli (Ec); [3]): < 8 µg/mL | MIC (E.faecalis (Ef); read-out: Ef +bicarb 25 (MIC)): < 8 µg/mL | MIC (S.aureus (Sa); read-out: Sa + bicarb 25 (MIC)): < 8 µg/mL | MIC (P.aeruginosa (Pa); read-out: Pa +bicarb 25 (MIC)): 8 to 32 µg/mL | MIC (A.baumannii (Ab); read-out: Ab +bicarb 25 (MIC)): 8 to 32 µg/mL | IC50 [2]: < 500 nM

CC(C)(N)C(=O)N1CCN(C(=O)Nc2ccn(-c3ccc4c(c3)CCC(N(CC3CC3)[C@H]3CC[C@H](N)CC3)C4)c(=O)n2)CC1 (stereo partly drawn) [Compound 17, 4-(2-Amino-2-methylpropanoyl)-N-(1-(6-(((trans)-4-aminocyclohexyl)(cyclopropylmethyl)amino)-5,6,7,8-tetrahydronaphthalen-2-yl)-2-oxo-1,2-dihydropyrimidin-4-yl)piperazine-1-carboxamide hydrochloride salt]
IC50 [1]: ≥ 1000 nM | MIC (E.coli (Ec); [3]): < 8 µg/mL | MIC (E.faecalis (Ef); read-out: Ef +bicarb 25 (MIC)): < 8 µg/mL | MIC (S.aureus (Sa); read-out: Sa + bicarb 25 (MIC)): < 8 µg/mL | MIC (P.aeruginosa (Pa); read-out: Pa +bicarb 25 (MIC)): 8 to 32 µg/mL | MIC (A.baumannii (Ab); read-out: Ab +bicarb 25 (MIC)): 8 to 32 µg/mL | IC50 [2]: 500 to 1000 nM

CC(C)(N)C(=O)N1CCN(C(=O)Nc2ccn(-c3ccc4c(c3)OCC(N3CC[C@H](CN)C3)C4)c(=O)n2)CC1 (stereo partly shown) [Compound 18]
IC50 [1]: ≥ 1000 nM | MIC (E.coli (Ec); [4]): < 8 µg/mL | MIC (E.faecalis (Ef); [5]): 8 to 32 µg/mL (≈ 14.9 to 59.4 µM) | MIC (S.aureus (Sa); [6]): < 8 µg/mL | MIC (P.aeruginosa (Pa); [7]): 8 to 32 µg/mL (≈ 14.9 to 59.4 µM) | MIC (A.baumannii (Ab); [8]): 8 to 32 µg/mL (≈ 14.9 to 59.4 µM) | IC50 [2]: ≥ 1000 nM

CN(C1CCc2cc(-n3ccc(NC(=O)N4CCN(C(=O)C(C)(C)N)CC4)nc3=O)ccc2C1)[C@H]1CC[C@H](N)C1 (stereo partly shown) [Compound 19, Hydrochloride Salt]
IC50 [1]: ≥ 1000 nM | MIC (E.coli (Ec); [4]): < 8 µg/mL | MIC (E.faecalis (Ef); [5]): < 8 µg/mL | MIC (S.aureus (Sa); [6]): < 8 µg/mL | MIC (P.aeruginosa (Pa); [7]): 8 to 32 µg/mL | MIC (A.baumannii (Ab); [8]): 8 to 32 µg/mL | IC50 [2]: < 500 nM

CCN(C1CCc2cc(-n3ccc(NC(=O)N4CCN(C(=O)C(C)(C)N)CC4)nc3=O)ccc2C1)[C@H]1CC[C@H](N)C1 (stereo partly shown) [Compound 20]
IC50 [1]: ≥ 1000 nM | MIC (E.coli (Ec); [4]): < 8 µg/mL | MIC (E.faecalis (Ef); [5]): < 8 µg/mL | MIC (S.aureus (Sa); [6]): < 8 µg/mL | MIC (P.aeruginosa (Pa); [7]): 8 to 32 µg/mL (≈ 14.2 to 56.7 µM) | MIC (A.baumannii (Ab); [8]): 8 to 32 µg/mL (≈ 14.2 to 56.7 µM) | IC50 [2]: < 500 nM

CC(C)(N)C(=O)N1CCN(C(=O)Nc2ccn(-c3ccc4c(c3)CCC(N(CC3CC3)[C@H]3CC[C@H](N)C3)C4)c(=O)n2)CC1 (stereo partly shown) [Compound 21]
IC50 [1]: ≥ 1000 nM | MIC (E.coli (Ec); [4]): < 8 µg/mL | MIC (E.faecalis (Ef); [5]): < 8 µg/mL | MIC (S.aureus (Sa); [6]): < 8 µg/mL | MIC (P.aeruginosa (Pa); [7]): 8 to 32 µg/mL (≈ 13.5 to 54.2 µM) | MIC (A.baumannii (Ab); [8]): 8 to 32 µg/mL (≈ 13.5 to 54.2 µM) | IC50 [2]: < 500 nM

CC(C)(N)C(=O)N1CCN(C(=O)Nc2ccn(-c3ccc4c(c3)OCC(N3CCCC(N)CC3)C4)c(=O)n2)CC1 (stereo not shown) [Compound 22]
IC50 [1]: ≥ 1000 nM | MIC (E.coli (Ec); [9]): < 8 µg/mL | MIC (E.faecalis (Ef); [10]): > 32 µg/mL | MIC (S.aureus (Sa); [11]): 8 to 32 µg/mL | MIC (P.aeruginosa (Pa); [12]): > 32 µg/mL | MIC (A.baumannii (Ab); [13]): > 32 µg/mL | IC50 [2]: 500 to 1000 nM

CC(C)(N)C(=O)N1CCN(C(=O)Nc2ccn(-c3ccc4c(c3)OCC(N3CC5CC5(CN)C3)C4)c(=O)n2)CC1 (stereo not shown) [Compound 23]
IC50 [1]: ≥ 1000 nM | MIC (E.coli (Ec); [9]): 8 to 32 µg/mL | MIC (E.faecalis (Ef); [10]): > 32 µg/mL | MIC (S.aureus (Sa); [11]): > 32 µg/mL | MIC (P.aeruginosa (Pa); [12]): > 32 µg/mL | MIC (A.baumannii (Ab); [13]): > 32 µg/mL | IC50 [2]: ≥ 1000 nM

CC(C)(N)C(=O)N1CCN(C(=O)Nc2ccn(-c3ccc4c(c3)CCC(N[C@@H]3CC[C@@H](N)C3)C4)c(=O)n2)CC1 (stereo partly shown) [Compound 25]
IC50 [1]: ≥ 1000 nM | MIC (E.coli (Ec); read-out: E. coli + bicarb 6.25 (MIC)): < 8 µg/mL | MIC (E.faecalis (Ef); read-out: Ef +bicarb 6.25 (MIC)): > 32 µg/mL | MIC (S.aureus (Sa); read-out: Sa + bicarb 6.25 (MIC)): < 8 µg/mL | MIC (P.aeruginosa (Pa); read-out: Pa +bicarb 6.25 (MIC)): > 32 µg/mL | MIC (A.baumannii (Ab); read-out: Ab +bicarb 6.25 (MIC)): > 32 µg/mL | IC50 [2]: < 500 nM

CC(C)(N)C(=O)N1CCN(C(=O)Nc2ccn(-c3ccc4c(c3)CCC(N[C@H]3CC[C@@H](N)C3)C4)c(=O)n2)CC1 (stereo partly shown) [Compound 26]
IC50 [1]: ≥ 1000 nM | MIC (E.coli (Ec); [9]): < 8 µg/mL | MIC (E.faecalis (Ef); [10]): > 32 µg/mL | MIC (S.aureus (Sa); [11]): < 8 µg/mL | MIC (P.aeruginosa (Pa); [12]): > 32 µg/mL | MIC (A.baumannii (Ab); [13]): > 32 µg/mL | IC50 [2]: < 500 nM
